# Assay results as given in ChEMBL document CHEMBL5303573, “Mapping human microbiome drug metabolism by gut bacteria and their genes” (Nature, 2019).
# Assay: The drug is tested on Bifidobacterium breve strain: DSM20213 for biotransformation. The drug concentrations were measured before and after a 12-h incubation by liquid-chromatography-coupled mass spectrometry (LC–MS)
# Conditions: 2 µM
row,Compound,Bacterial Biotransformation
1,CCOc1ccccc1OCCN[C@H](C)Cc1ccc(OC)c(S(N)(=O)=O)c1.Cl [TAMSULOSIN HYDROCHLORIDE],Compound NOT metabolized
2,CC1=C(CC(=O)O)c2cc(F)ccc2/C1=C\c1ccc([S+](C)[O-])cc1 (centres undefined),Compound NOT metabolized
3,O=C1C(CC[S+]([O-])c2ccccc2)C(=O)N(c2ccccc2)N1c1ccccc1 (centres undefined) [SULFINPYRAZONE],Compound NOT metabolized

# Assay: The drug is tested on Bacteroides caccae strain: ATCC43185 for biotransformation. The drug concentrations were measured before and after a 12-h incubation by liquid-chromatography-coupled mass spectrometry (LC–MS)
# Conditions: 2 µM
row,Compound,Bacterial Biotransformation
1,CCOc1ccccc1OCCN[C@H](C)Cc1ccc(OC)c(S(N)(=O)=O)c1.Cl [TAMSULOSIN HYDROCHLORIDE],Compound NOT metabolized
2,O=C1C(CC[S+]([O-])c2ccccc2)C(=O)N(c2ccccc2)N1c1ccccc1 (centres undefined) [SULFINPYRAZONE],Compound NOT metabolized

# Assay: The drug is tested on Bacteroides cellulosilyticus strain: DSM14838 for biotransformation. The drug concentrations were measured before and after a 12-h incubation by liquid-chromatography-coupled mass spectrometry (LC–MS)
# Conditions: 2 µM
row,Compound,Bacterial Biotransformation
1,CCOc1ccccc1OCCN[C@H](C)Cc1ccc(OC)c(S(N)(=O)=O)c1.Cl [TAMSULOSIN HYDROCHLORIDE],Compound NOT metabolized
2,CC1=C(CC(=O)O)c2cc(F)ccc2/C1=C\c1ccc([S+](C)[O-])cc1 (centres undefined),Compound NOT metabolized
3,O=C1C(CC[S+]([O-])c2ccccc2)C(=O)N(c2ccccc2)N1c1ccccc1 (centres undefined) [SULFINPYRAZONE],Compound NOT metabolized

# Assay: The drug is tested on Bacteroides finegoldii strain: DSM17565 for biotransformation. The drug concentrations were measured before and after a 12-h incubation by liquid-chromatography-coupled mass spectrometry (LC–MS)
# Conditions: 2 µM
row,Compound,Bacterial Biotransformation
1,CCOc1ccccc1OCCN[C@H](C)Cc1ccc(OC)c(S(N)(=O)=O)c1.Cl [TAMSULOSIN HYDROCHLORIDE],Compound NOT metabolized
2,CC1=C(CC(=O)O)c2cc(F)ccc2/C1=C\c1ccc([S+](C)[O-])cc1 (centres undefined),Compound NOT metabolized
3,O=C1C(CC[S+]([O-])c2ccccc2)C(=O)N(c2ccccc2)N1c1ccccc1 (centres undefined) [SULFINPYRAZONE],Compound NOT metabolized

# Assay: The drug is tested on Bacteroides fragilis strain: ATCC43859 for biotransformation. The drug concentrations were measured before and after a 12-h incubation by liquid-chromatography-coupled mass spectrometry (LC–MS)
# Conditions: 2 µM
row,Compound,Bacterial Biotransformation
1,CCOc1ccccc1OCCN[C@H](C)Cc1ccc(OC)c(S(N)(=O)=O)c1.Cl [TAMSULOSIN HYDROCHLORIDE],Compound NOT metabolized
2,CC1=C(CC(=O)O)c2cc(F)ccc2/C1=C\c1ccc([S+](C)[O-])cc1 (centres undefined),Compound NOT metabolized
3,O=C1C(CC[S+]([O-])c2ccccc2)C(=O)N(c2ccccc2)N1c1ccccc1 (centres undefined) [SULFINPYRAZONE],Compound metabolized

# Assay: The drug is tested on Bacteroides ovatus strain: ATCC8483 for biotransformation. The drug concentrations were measured before and after a 12-h incubation by liquid-chromatography-coupled mass spectrometry (LC–MS)
# Conditions: 2 µM
row,Compound,Bacterial Biotransformation
1,CCOc1ccccc1OCCN[C@H](C)Cc1ccc(OC)c(S(N)(=O)=O)c1.Cl [TAMSULOSIN HYDROCHLORIDE],Compound NOT metabolized
2,CC1=C(CC(=O)O)c2cc(F)ccc2/C1=C\c1ccc([S+](C)[O-])cc1 (centres undefined),Compound NOT metabolized
3,O=C1C(CC[S+]([O-])c2ccccc2)C(=O)N(c2ccccc2)N1c1ccccc1 (centres undefined) [SULFINPYRAZONE],Compound NOT metabolized

# Assay: The drug is tested on Blautia luti strain: DSM14534 for biotransformation. The drug concentrations were measured before and after a 12-h incubation by liquid-chromatography-coupled mass spectrometry (LC–MS)
# Format: ADME
# Set-up: dose 2 uM, timepoint 0 vs 12 hours
# Conditions: 2 µM
row,Compound,Bacterial Biotransformation
1,CCOc1ccccc1OCCN[C@H](C)Cc1ccc(OC)c(S(N)(=O)=O)c1.Cl [TAMSULOSIN HYDROCHLORIDE],Compound NOT metabolized
2,CC1=C(CC(=O)O)c2cc(F)ccc2/C1=C\c1ccc([S+](C)[O-])cc1 (centres undefined),Compound NOT metabolized
3,O=C1C(CC[S+]([O-])c2ccccc2)C(=O)N(c2ccccc2)N1c1ccccc1 (centres undefined) [SULFINPYRAZONE],Compound NOT metabolized

# Assay: The drug is tested on Clostridium sp. strain: fecal isolate for biotransformation. The drug concentrations were measured before and after a 12-h incubation by liquid-chromatography-coupled mass spectrometry (LC–MS)
# Conditions: 2 µM
row,Compound,Bacterial Biotransformation
1,CCOc1ccccc1OCCN[C@H](C)Cc1ccc(OC)c(S(N)(=O)=O)c1.Cl [TAMSULOSIN HYDROCHLORIDE],Compound NOT metabolized
2,CC1=C(CC(=O)O)c2cc(F)ccc2/C1=C\c1ccc([S+](C)[O-])cc1 (centres undefined),Compound NOT metabolized

# Assay: The drug is tested on Clostridium scindens strain: ATCC35704 for biotransformation. The drug concentrations were measured before and after a 12-h incubation by liquid-chromatography-coupled mass spectrometry (LC–MS)
# Conditions: 2 µM
row,Compound,Bacterial Biotransformation
1,CCOc1ccccc1OCCN[C@H](C)Cc1ccc(OC)c(S(N)(=O)=O)c1.Cl [TAMSULOSIN HYDROCHLORIDE],Compound NOT metabolized
2,CC1=C(CC(=O)O)c2cc(F)ccc2/C1=C\c1ccc([S+](C)[O-])cc1 (centres undefined),Compound NOT metabolized

# Assay: The drug is tested on Clostridium symbiosum strain: ATCC14940 for biotransformation. The drug concentrations were measured before and after a 12-h incubation by liquid-chromatography-coupled mass spectrometry (LC–MS)
# Conditions: 2 µM
row,Compound,Bacterial Biotransformation
1,CCOc1ccccc1OCCN[C@H](C)Cc1ccc(OC)c(S(N)(=O)=O)c1.Cl [TAMSULOSIN HYDROCHLORIDE],Compound NOT metabolized
2,CC1=C(CC(=O)O)c2cc(F)ccc2/C1=C\c1ccc([S+](C)[O-])cc1 (centres undefined),Compound NOT metabolized

# Assay: The drug is tested on Eubacterium hallii strain: DSM3353 for biotransformation. The drug concentrations were measured before and after a 12-h incubation by liquid-chromatography-coupled mass spectrometry (LC–MS)
# Conditions: anaerobutyricum hallii, 2 µM
row,Compound,Bacterial Biotransformation
1,CCOc1ccccc1OCCN[C@H](C)Cc1ccc(OC)c(S(N)(=O)=O)c1.Cl [TAMSULOSIN HYDROCHLORIDE],Compound NOT metabolized
2,CC1=C(CC(=O)O)c2cc(F)ccc2/C1=C\c1ccc([S+](C)[O-])cc1 (centres undefined),Compound NOT metabolized
3,O=C1C(CC[S+]([O-])c2ccccc2)C(=O)N(c2ccccc2)N1c1ccccc1 (centres undefined) [SULFINPYRAZONE],Compound NOT metabolized

# Assay: The drug is tested on Eubacterium rectale strain: ATCC33656 for biotransformation. The drug concentrations were measured before and after a 12-h incubation by liquid-chromatography-coupled mass spectrometry (LC–MS)
# Conditions: agathobacter rectalis, 2 µM
row,Compound,Bacterial Biotransformation
1,O=C1C(CC[S+]([O-])c2ccccc2)C(=O)N(c2ccccc2)N1c1ccccc1 (centres undefined) [SULFINPYRAZONE],Compound NOT metabolized

# Assay: The drug is tested on Subdoligranulum variabile strain: DSM15176 for biotransformation. The drug concentrations were measured before and after a 12-h incubation by liquid-chromatography-coupled mass spectrometry (LC–MS)
# Conditions: 2 µM
row,Compound,Bacterial Biotransformation
1,CCOc1ccccc1OCCN[C@H](C)Cc1ccc(OC)c(S(N)(=O)=O)c1.Cl [TAMSULOSIN HYDROCHLORIDE],Compound NOT metabolized
2,CC1=C(CC(=O)O)c2cc(F)ccc2/C1=C\c1ccc([S+](C)[O-])cc1 (centres undefined),Compound NOT metabolized
3,O=C1C(CC[S+]([O-])c2ccccc2)C(=O)N(c2ccccc2)N1c1ccccc1 (centres undefined) [SULFINPYRAZONE],Compound NOT metabolized

# Assay: The drug is tested on Enterobacter cancerogenus strain: ATCC35316 for biotransformation. The drug concentrations were measured before and after a 12-h incubation by liquid-chromatography-coupled mass spectrometry (LC–MS)
# Conditions: 2 µM
row,Compound,Bacterial Biotransformation
1,CCOc1ccccc1OCCN[C@H](C)Cc1ccc(OC)c(S(N)(=O)=O)c1.Cl [TAMSULOSIN HYDROCHLORIDE],Compound NOT metabolized
2,CC1=C(CC(=O)O)c2cc(F)ccc2/C1=C\c1ccc([S+](C)[O-])cc1 (centres undefined),Compound NOT metabolized
3,O=C1C(CC[S+]([O-])c2ccccc2)C(=O)N(c2ccccc2)N1c1ccccc1 (centres undefined) [SULFINPYRAZONE],Compound metabolized

# Assay: The drug is tested on Escherichia coli strain: BW25113 for biotransformation. The drug concentrations were measured before and after a 12-h incubation by liquid-chromatography-coupled mass spectrometry (LC–MS)
# Conditions: 2 µM
row,Compound,Bacterial Biotransformation
1,CCOc1ccccc1OCCN[C@H](C)Cc1ccc(OC)c(S(N)(=O)=O)c1.Cl [TAMSULOSIN HYDROCHLORIDE],Compound NOT metabolized
2,CC1=C(CC(=O)O)c2cc(F)ccc2/C1=C\c1ccc([S+](C)[O-])cc1 (centres undefined),Compound NOT metabolized
3,O=C1C(CC[S+]([O-])c2ccccc2)C(=O)N(c2ccccc2)N1c1ccccc1 (centres undefined) [SULFINPYRAZONE],Compound NOT metabolized

# Conditions: bacteroides fragilis, 12 h, 2 µM
# Description: The drug is tested on Bacteroides fragilis strain: NCTC 9343 for biotransformation. The drug concentrations were measured before and after a 12-h incubation by liquid-chromatography-coupled mass spectrometry (LC–MS)
row,Compound,Bacterial Biotransformation
1,CCOc1ccccc1OCCN[C@H](C)Cc1ccc(OC)c(S(N)(=O)=O)c1.Cl [TAMSULOSIN HYDROCHLORIDE],Compound NOT metabolized
2,CC1=C(CC(=O)O)c2cc(F)ccc2/C1=C\c1ccc([S+](C)[O-])cc1 (centres undefined),Compound NOT metabolized
3,O=C1C(CC[S+]([O-])c2ccccc2)C(=O)N(c2ccccc2)N1c1ccccc1 (centres undefined) [SULFINPYRAZONE],Compound metabolized

# Conditions: bacteroides fragilis, 12 h, 2 µM
# Remark: another data set of the same source
# Description: The drug is tested on Bacteroides fragilis strain: DS-208 for biotransformation. The drug concentrations were measured before and after a 12-h incubation by liquid-chromatography-coupled mass spectrometry (LC–MS)
row,Compound,Bacterial Biotransformation
1,CCOc1ccccc1OCCN[C@H](C)Cc1ccc(OC)c(S(N)(=O)=O)c1.Cl [TAMSULOSIN HYDROCHLORIDE],Compound NOT metabolized
2,CC1=C(CC(=O)O)c2cc(F)ccc2/C1=C\c1ccc([S+](C)[O-])cc1 (centres undefined),Compound NOT metabolized
3,O=C1C(CC[S+]([O-])c2ccccc2)C(=O)N(c2ccccc2)N1c1ccccc1 (centres undefined) [SULFINPYRAZONE],Compound metabolized

# Conditions: bacteroides thetaiotaomicron, 12 h, 2 µM
# Description: The drug is tested on Bacteroides thetaiotaomicron strain: VPI-5482 for biotransformation. The drug concentrations were measured before and after a 12-h incubation by liquid-chromatography-coupled mass spectrometry (LC–MS)
row,Compound,Bacterial Biotransformation
1,CCOc1ccccc1OCCN[C@H](C)Cc1ccc(OC)c(S(N)(=O)=O)c1.Cl [TAMSULOSIN HYDROCHLORIDE],Compound NOT metabolized
2,CC1=C(CC(=O)O)c2cc(F)ccc2/C1=C\c1ccc([S+](C)[O-])cc1 (centres undefined),Compound NOT metabolized
3,O=C1C(CC[S+]([O-])c2ccccc2)C(=O)N(c2ccccc2)N1c1ccccc1 (centres undefined) [SULFINPYRAZONE],Compound NOT metabolized

# Conditions: bacteroides thetaiotaomicron, 12 h, 2 µM
# Remark: another data set of the same source
# Description: The drug is tested on Bacteroides thetaiotaomicron strain: 3731 for biotransformation. The drug concentrations were measured before and after a 12-h incubation by liquid-chromatography-coupled mass spectrometry (LC–MS)
row,Compound,Bacterial Biotransformation
1,CCOc1ccccc1OCCN[C@H](C)Cc1ccc(OC)c(S(N)(=O)=O)c1.Cl [TAMSULOSIN HYDROCHLORIDE],Compound NOT metabolized
2,CC1=C(CC(=O)O)c2cc(F)ccc2/C1=C\c1ccc([S+](C)[O-])cc1 (centres undefined),Compound NOT metabolized
3,O=C1C(CC[S+]([O-])c2ccccc2)C(=O)N(c2ccccc2)N1c1ccccc1 (centres undefined) [SULFINPYRAZONE],Compound NOT metabolized

# Conditions: parabacteroides distasonis, 12 h, 2 µM
# Description: The drug is tested on Parabacteroides distasonis strain: ATCC8503 for biotransformation. The drug concentrations were measured before and after a 12-h incubation by liquid-chromatography-coupled mass spectrometry (LC–MS)
row,Compound,Bacterial Biotransformation
1,CCOc1ccccc1OCCN[C@H](C)Cc1ccc(OC)c(S(N)(=O)=O)c1.Cl [TAMSULOSIN HYDROCHLORIDE],Compound NOT metabolized
2,CC1=C(CC(=O)O)c2cc(F)ccc2/C1=C\c1ccc([S+](C)[O-])cc1 (centres undefined),Compound NOT metabolized
3,O=C1C(CC[S+]([O-])c2ccccc2)C(=O)N(c2ccccc2)N1c1ccccc1 (centres undefined) [SULFINPYRAZONE],Compound NOT metabolized
